Measurements reported in PubChem BioAssay AID179 (DTP/NCI, 2004).
Calls of active or inactive are those of the source.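 Rule for the calls: active = compounds giving half or more protection of infected cells from virus-caused growth loss, again on retest; inactive = the rest.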 Where a SMILES comes first, the peptide text is derived from it. The star is where a group is joined. Boc = CC(C)(C)OC(=O)*

Test system: CEM cells HIV-1 protection, formazan growth assay
Test: NCI AIDS Antiviral Assay
Conditions: for IC50: measured here: growth of uninfected CEM cells
Summary of the method: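 CEM (human) cells, HIV-1 infected vs uninfected, 5-point dosing, formazan growth read-out. Retest threshold 50% protection.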

With COC(=O)C(Cc1c[nH]c2ccccc12)NC(=O)C(Cc1c[nH]c2ccccc12)NC(=O)C(Cc1c[nH]c2ccccc12)NC(=O)C(Cc1c[nH]c2ccccc12)NC(=O)C(Cc1c[nH]c2ccccc12)NC(=O)C(Cc1c[nH]c2ccccc12)NC(=O)OC(C)(C)C (stereo not given) (Boc-WWWWWW-OMe; configuration not given here) the EC50 was > 100 µM and the IC50 was 60.3 µM.
For c1cnc2nc3n(c2c1)CSC3, the EC50 was > 380 µM and the IC50 was 355 µM.
CC(=O)OCC1OC(n2c(C#N)cc(=O)[nH]c2=O)CC1OC(C)=O (stereo not given) was tested, and the EC50 was > 200 µM and the IC50 was 57.5 µM.
In the case of COc1ccc2nc(NC(=O)C(=O)C(C(=O)c3ccccc3-c3ccccc3)C3OC(=O)c4ccccc43)sc2c1 (stereo not given), the EC50 is reported as > 45.7 µM and the IC50 is reported as 25.1 µM.
With c1ccc2c(-c3csc(-c4c[nH]c5ccccc45)n3)c[nH]c2c1 the EC50 was > 200 µM and the IC50 was 56.2 µM.
CC(=O)NC1C(OCc2ccccc2)OC(COC(=O)CCCCCCCCCCNC(=O)c2cccc3c(=O)c4ccccc4[nH]c23)C(O)C1OC(C)C(=O)NC(C)C(=O)NC(CCC(N)=O)C(N)=O (stereo not given) was tested, and the EC50 was > 7.41 µM and the IC50 was > 7.41 µM.
In the case of NNC(=O)CCC(=O)Nc1cc(Cl)c(Cl)cc1Cl, the EC50 is reported as > 115 µM and the IC50 is reported as > 115 µM.
Cc1ccc(S(=O)(=O)/C(C#N)=C/NS(=S)c2ccncc2)cc1 (stereo not given) was tested, and the outcome was “inactive”.
In the case of O=c1nc(Oc2ccccc2)nc2cnccn12, the EC50 is reported as > 372 µM and the IC50 is reported as 145 µM.
In the case of NC(CCSS(=O)(=O)O)=NCC(c1ccccc1)c1ccccc1, the EC50 is reported as > 123 µM and the IC50 is reported as 20 µM.
CN(C)Nc1cc(=O)[nH]c(=O)[nH]1 was tested, and the EC50 was > 200 µM and the IC50 was > 200 µM.
In the case of COC(=O)c1ccc(CO/N=C(\c2ccccc2)c2ccccn2)cc1, the EC50 is reported as > 162 µM and the IC50 is reported as 57.5 µM.
S=c1[nH][nH]c(=S)s1 was tested, and the EC50 was 288 µM and the IC50 was 501 µM.
NC(=O)c1c[se]c(C2OC(COP(=O)(O)CP(=O)(O)OCC3OC(n4cnc5c(N)ncnc54)C(O)C3O)C(O)C2O)n1 (stereo not given) was tested, and the EC50 was > 100 µM and the IC50 was 16.6 µM.
In the case of C/C(=N\NC(=S)N(C)C)c1cccnn1, the EC50 is reported as > 200 µM and the IC50 is reported as 0.355 µM.
CC(C)CC(=O)[O-].CC(C)CC(=O)[O-].N.N.N.N.[Co+3].[O-][Cl+3]([O-])([O-])[O-] was tested, and the outcome was “inactive”.
In the case of CCCCc1ccc(N2C(=O)c3cc(C)cnc3S2(=O)=O)cc1, the EC50 is reported as > 200 µM and the IC50 is reported as > 200 µM.
Cc1c(Cl)ccc2c1NC(=O)C2(O)C1Cc2ccccc2C1=O (stereo not given) was tested, and the EC50 was > 28.8 µM and the IC50 was 12.6 µM.
In the case of C1CN2N3CCCC23C1 (stereo not given), the EC50 is reported as > 2000 µM and the IC50 is reported as > 2000 µM.
With Clc1ccc(-c2nnc3c4nnc(-c5ccc(Cl)cc5Cl)n4c4ccccc4n23)c(Cl)c1 the outcome was “inactive”.
With Cn1c([C@H](C#N)c2ncccc2[N+](=O)[O-])nc2ccccc21 the EC50 was > 200 µM and the IC50 was 110 µM.
Cc1cc(=O)n(-c2cc3cccccc-3n2)[nH]1 was tested, and the outcome was “inactive”.
CC(C)CCCC(C)C1CCC2[C@@H]3CCC4C[C@@H](CCC=C(c5cc(Br)c(O)c(C(=O)O)c5)c5cc(Br)c(O)c(C(=O)O)c5)CC[C@]4(C)C3CC[C@]12C (stereo not given in full) gave an EC50 of 20.9 µM and an IC50 of 282 µM.
With Cc1cccc(NC(=O)CC(=O)N2N=C(N(CCC#N)c3ccccc3Cl)CC2c2ccccc2)c1 (stereo not given) the EC50 was > 186 µM and the IC50 was > 186 µM.
With CCOC(OC1=C(C#N)CCCC1)C(CC)[Se]c1ccccc1[N+](=O)[O-] (stereo not given) the EC50 was > 23.4 µM and the IC50 was > 23.4 µM.
CC1(C)C2CCC3=C(CCC4(C)C5C[C@](C)(C(=O)O)CC[C@]5(C)CC[C@]34C)[C@@]2(C)CC[C@@H]1O (stereo not given in full) showed an EC50 of 24 µM and an IC50 of 81.3 µM.
With COc1ccc(C2CC(c3c(C)nn(-c4ccccc4)c3-c3ccc(C)cc3O)=NN2c2ccccc2)cc1 (stereo not given) the EC50 was > 200 µM and the IC50 was 12.9 µM.
O=[N+]([O-])c1ccc2ncccc2c1CCc1c([N+](=O)[O-])ccc2ncccc12 was tested, and the outcome was “inactive”.
With C[N+](C)(C)CC(=O)N/N=C(/CC1OC(=O)c2ccccc21)c1ccccc1O (stereo not given) the EC50 was > 120 µM and the IC50 was 77.6 µM.
For CC(=O)NNC(=S)N/C=C\c1nc2ccccc2[nH]c1=O, the EC50 was > 200 µM and the IC50 was > 200 µM.
In the case of C/C(O)=C(/C=NC(=S)c1ccncc1)C(=O)Nc1ccccc1, the EC50 is reported as > 200 µM and the IC50 is reported as > 200 µM.
For COC(=O)Cn1cnc2c(Cl)nc(Nc3ccccc3)nc21, the EC50 was > 200 µM and the IC50 was 63.1 µM.
For COC(=O)C1=C2Nc3ccccc3[C@@]23CCN(Cc2ccccc2)[C@H]3CC1[C@H](O)CO (stereo not given in full), the EC50 was > 148 µM and the IC50 was 83.2 µM.
For C=CCCC1(CC(Sc2ccccc2)P(=O)(c2ccccc2)c2ccccc2)OCCO1 (stereo not given), the EC50 was > 200 µM and the IC50 was > 200 µM.
CCOC(=O)Cc1c[nH]c2ccc(N(CCO)CCO)cc12 was tested, and the EC50 was > 200 µM.
C(=Nc1cnc2ccccc2c1)c1ccncc1 was tested, and the EC50 was > 288 µM and the IC50 was 66.1 µM.
For COc1ccc(Br)c(C(=O)N2CCc3ccccc32)c1N, the outcome was “inactive”.
In the case of CCOC(=O)N1C=NC23C(c4ccccc4)C(c4ccccc4)C12C(=O)N(C)C(=O)N3C (stereo not given), the EC50 is reported as > 22.9 µM and the IC50 is reported as > 22.9 µM.
With CC(=O)C(=Cc1ccc(N(C)C)cc1)C(C)=O the EC50 was > 562 µM and the IC50 was 112 µM.
In the case of COC(=O)C1=NN2c3ccccc3C(=O)OCCC2(C)C1 (stereo not given), the EC50 is reported as > 200 µM and the IC50 is reported as > 200 µM.
For O=C1Nc2ccc(Cl)cc2C(c2ccccc2Cl)=NC1O (stereo not given), the outcome was “inactive”.
With COC(=O)c1ccc(C(=O)NC(Cc2ccc(Oc3cc(CC(NC(=O)c4ccccc4C(=O)OC)C(=O)OC)ccc3OC)cc2)C(=O)OC)cc1 (stereo not given) the EC50 was > 200 µM and the IC50 was 16.2 µM.
With c1ccc(C2SCc3nc4ccccc4n32)cc1 (stereo not given) the EC50 was > 141 µM and the IC50 was 35.5 µM.
CCOC(=O)N1C/C(=C\c2ccccc2)C(=O)/C(=C/c2ccccc2)C1 was tested, and the EC50 was > 100 µM and the IC50 was 1.82 µM.
N#Cc1ccccc1Sc1ccccc1N was tested, and the EC50 was > 158 µM and the IC50 was > 158 µM.
In the case of CC(C)CC(NC(=O)C(COc1ccc([N+](=O)[O-])cc1)Cc1ccccc1)C(=O)Nc1ccccc1 (stereo not given), the EC50 is reported as > 100 µM and the IC50 is reported as 15.1 µM.
Cc1nc(Cl)nc2c1C(=O)Nc1ccccc1N2 was tested, and the EC50 was > 52.5 µM and the IC50 was 26.9 µM.
CC1CN=C(Nc2cccc(F)c2)S1 (stereo not given) was tested, and the EC50 was 0.191 µM and the IC50 was > 200 µM.
In the case of CC(=O)Oc1ccc(-c2cc3ccccc3oc2=O)cc1, the EC50 is reported as > 200 µM and the IC50 is reported as 28.2 µM.
NC(=O)C(=CNc1nc(-c2cccc([N+](=O)[O-])c2)cs1)C(N)=O was tested, and the EC50 was > 200 µM and the IC50 was > 100 µM.
For CC(=O)C(=CC=C(c1ccc(N(C)C)cc1)c1ccc(N(C)C)cc1)C(C)=O, the EC50 was > 5.37 µM and the IC50 was 3.24 µM.
In the case of Nc1nc(NCCOCP(=O)(O)O)c([N+](=O)[O-])c(=O)[nH]1, the EC50 is reported as 178 µM and the IC50 is reported as > 200 µM.
With CCNC(=O)c1c(O)c2ccccc2[nH]c1=O the EC50 was > 200 µM and the IC50 was > 200 µM.
For CN(C)Cc1cc(C23CC4CC(CC(C4)C2)C3)cc(-c2ccccc2)c1O, the outcome was “inactive”.
In the case of O=C(NCCO)c1c(CN(CCO)CCO)n([O-])c2ccccc2[n+]1=O, the EC50 is reported as > 490 µM and the IC50 is reported as 457 µM.
Cc1ccc2c(c1C)CC1(Cc3c(C)ccc(C)c3C1=O)C2=O (stereo not given) was tested, and the EC50 was > 100 µM and the IC50 was > 100 µM.
For NC(CSS(=O)(=O)O)=NCc1ccccc1, the EC50 was > 200 µM and the IC50 was > 200 µM.
For CC1CCN(c2nnc(Cl)cc2C(=O)c2ccccc2)CC1, the EC50 was > 200 µM and the IC50 was 52.5 µM.
For CCOC(=O)C1CC(C(=O)OCC)c2nc3ccccc3nc21 (stereo not given), the EC50 was > 8.71 µM and the IC50 was > 8.71 µM.
In the case of NC(N)=Nc1ccc(-c2ccc(N=C(N)N)cc2)cc1, the EC50 is reported as > 200 µM and the IC50 is reported as 25.1 µM.
With NC(N)=NCC[C@H](NC(=O)OCCCCCn1ccc(=O)[nH]c1=O)C(=O)O the EC50 was > 200 µM and the IC50 was > 200 µM.
CCOC(=O)C(=O)Nc1cc(Cl)c(Cl)cc1Cl was tested, and the EC50 was > 63.1 µM and the IC50 was > 63.1 µM.
